From PubChem BioAssay (NCI)
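Following 48 hours of exposure in 96-well plates, responses at five concentrations were used to interpolate endpoints linearly. Abbreviation: GI50, concentration required for 50% inhibition of growth. Definition used: TGI = concentration required for complete inhibition of growth.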

Legend:
Test in all cases: DTP human tumour cell line panel, 48 h
[1] = system: A549 NSCLC
[2] = system: ACHN renal
[3] = system: CAKI-1 renal
[4] = system: CCRF-CEM leukemia
[5] = system: COLO 205 colon
[6] = system: DLD-1 colon
[7] = system: DMS 114 small cell lung
[8] = system: EKVX NSCLC
[9] = system: HCC-2998 colon
[10] = system: HCT-116 colon
[11] = system: HCT-15 colon
[12] = system: HOP-18 NSCLC
[13] = system: HOP-62 NSCLC
[14] = system: HOP-92 NSCLC
[15] = system: HT29 colon
[16] = system: IGROV1 ovarian
[17] = system: K-562 leukemia
[18] = system: KM12 colon
[19] = system: KM20L2 colon
[20] = system: LOX IMVI melanoma
[21] = system: LXFL 529 NSCLC
[22] = system: M14 melanoma
[23] = system: M19-MEL melanoma
[24] = system: MALME-3M melanoma
[25] = system: MOLT-4 leukemia
[26] = system: NCI-H226 lung
[27] = system: NCI-H23 lung
[28] = system: NCI-H460 lung
[29] = system: NCI-H522 lung
[30] = system: OVCAR-3 ovarian
[31] = system: OVCAR-4 ovarian
[32] = system: OVCAR-5 ovarian
[33] = system: OVCAR-8 ovarian
[34] = system: RXF 393 renal
[35] = system: SF-268 CNS
[36] = system: SF-539 CNS
[37] = system: SK-MEL-2 melanoma
[38] = system: SK-MEL-28 melanoma
[39] = system: SK-MEL-5 melanoma
[40] = system: SK-OV-3 ovarian
[41] = system: SN12C renal
[42] = system: SNB-19 CNS
[43] = system: SR leukemia
[44] = system: SW-620 colon
[45] = system: TK-10 renal
[46] = system: U251 CNS
[47] = system: UACC-62 melanoma
[48] = system: UO-31 renal
[49] = system: XF 498 CNS
[50] = system: 786-0 renal
[51] = system: A498 renal
[52] = system: DMS 273 small cell lung
[53] = system: HL-60(TB) leukemia
[54] = system: RPMI-8226 leukemia
[55] = system: SNB-75 CNS
[56] = system: SNB-78 CNS
[57] = system: UACC-257 melanoma
[58] = system: SF-295 CNS

For CCC[CH2][Ge]([CH2]CCC)([CH2]CCC)[O]C(=O)CCl, the GI50 [1] was 1.01 µM, the TGI [1] was 17.3 µM and the GI50 [2] was 2.71 µM. The TGI [2] was 18.4 µM, the GI50 [3] was 5.26 µM and the TGI [3] was 20.3 µM. It also gave a GI50 [4] of 0.406 µM, a TGI [4] of 17.9 µM and a GI50 [5] of 10.4 µM. It also gave a TGI [5] of 24 µM, a GI50 [6] of 0.122 µM and a TGI [6] of 15.7 µM. For the same compound, the GI50 [7] was 0.316 µM, the TGI [7] was 10.2 µM and the GI50 [8] was 1.18 µM. It also gave a TGI [8] of 16.2 µM, a GI50 [9] of 1.32 µM and a TGI [9] of 7.63 µM. It also gave a GI50 [10] of 0.498 µM, a TGI [10] of 13.3 µM and a GI50 [11] of 0.546 µM. The TGI [11] was 11.5 µM, the GI50 [12] was 11.7 µM and the TGI [12] was 24 µM. The GI50 [13] was 1.89 µM, the TGI [13] was 9.23 µM and the GI50 [14] was 0.573 µM. For the same compound, the TGI [14] was 8.54 µM, the GI50 [15] was 0.628 µM and the TGI [15] was 11.5 µM. It also gave a GI50 [16] of 3.27 µM, a TGI [16] of 18.4 µM and a GI50 [17] of 0.879 µM. For the same compound, the TGI [17] was 31.6 µM, the GI50 [18] was 1.4 µM and the TGI [18] was 15.9 µM. For the same compound, the GI50 [19] was 2.95 µM, the TGI [19] was 23.5 µM and the GI50 [20] was 1.16 µM. It also gave a TGI [20] of 3.52 µM, a GI50 [21] of 1.98 µM and a TGI [21] of 17.1 µM. The GI50 [22] was 1.25 µM, the TGI [22] was 6.94 µM and the GI50 [23] was 11.1 µM. The TGI [23] was 23.2 µM, the GI50 [24] was 1.14 µM and the TGI [24] was 12.5 µM. For the same compound, the GI50 [25] was 0.856 µM, the TGI [25] was 29.9 µM and the GI50 [26] was 14.1 µM. It also gave a TGI [26] of 31.5 µM, a GI50 [27] of 0.115 µM and a TGI [27] of 12.5 µM. For the same compound, the GI50 [28] was 0.518 µM, the TGI [28] was 13.2 µM and the GI50 [29] was 0.214 µM. For the same compound, the GI50 [30] was 2.33 µM, the TGI [30] was 16.3 µM and the GI50 [31] was 2.76 µM. It also gave a TGI [31] of 21.5 µM, a GI50 [32] of 12.3 µM and a TGI [32] of 26.2 µM. The GI50 [33] was 5.19 µM, the TGI [33] was 22 µM and the GI50 [34] was 0.612 µM. The TGI [34] was 3.56 µM, the GI50 [35] was 10.2 µM and the TGI [35] was 23.1 µM. For the same compound, the GI50 [36] was 1.65 µM, the TGI [36] was 6.85 µM and the GI50 [37] was 3.59 µM. It also gave a TGI [37] of 19.7 µM, a GI50 [38] of 11.5 µM and a TGI [38] of 23.6 µM. For the same compound, the GI50 [39] was 0.305 µM, the TGI [39] was 3.36 µM and the GI50 [40] was 5.2 µM. It also gave a TGI [40] of 20.6 µM, a GI50 [41] of 1.46 µM and a TGI [41] of 19.3 µM. For the same compound, the GI50 [42] was 10.8 µM, the TGI [42] was 22.9 µM and the GI50 [43] was 0.836 µM. It also gave a TGI [43] of 68.5 µM, a GI50 [44] of 4.19 µM and a TGI [44] of 17.4 µM. It also gave a GI50 [45] of 3.4 µM, a TGI [45] of 17.7 µM and a GI50 [46] of 0.889 µM. For the same compound, the TGI [46] was 16.6 µM, the GI50 [47] was 1.07 µM and the TGI [47] was 8.67 µM. For the same compound, the GI50 [48] was 2.28 µM, the TGI [48] was 15.6 µM and the GI50 [49] was 8.63 µM. It also gave a TGI [49] of 21.1 µM.

For Cc1ccc(NC(=O)NC23CC4CC(CC(F)(C4)C2)C3)cc1, the TGI [50] was > 100 µM, the TGI [51] was > 100 µM and the TGI [1] was > 100 µM. The TGI [2] was > 100 µM, the TGI [4] was > 100 µM and the TGI [5] was > 100 µM. The TGI [6] was > 100 µM, the TGI [7] was > 100 µM and the TGI [52] was > 100 µM. For the same compound, the TGI [8] was > 100 µM, the TGI [9] was > 100 µM and the TGI [10] was > 100 µM. For the same compound, the TGI [53] was > 100 µM, the TGI [13] was > 100 µM and the TGI [14] was > 100 µM. For the same compound, the TGI [15] was > 100 µM, the TGI [16] was > 100 µM and the TGI [17] was > 100 µM. For the same compound, the TGI [18] was > 100 µM, the TGI [19] was > 100 µM and the TGI [20] was > 100 µM. For the same compound, the TGI [21] was > 100 µM, the TGI [22] was > 100 µM and the TGI [23] was > 100 µM. For the same compound, the TGI [24] was > 100 µM, the TGI [25] was > 100 µM and the TGI [27] was > 100 µM. For the same compound, the TGI [28] was > 100 µM, the TGI [29] was > 100 µM and the TGI [30] was > 100 µM. The TGI [32] was > 100 µM, the TGI [33] was > 100 µM and the TGI [54] was 90.2 µM. For the same compound, the TGI [34] was > 100 µM, the TGI [36] was > 100 µM and the TGI [37] was > 100 µM. For the same compound, the TGI [38] was > 100 µM, the TGI [39] was > 100 µM and the TGI [40] was > 100 µM. The TGI [42] was > 100 µM, the TGI [55] was 87.1 µM and the TGI [56] was > 100 µM. For the same compound, the TGI [44] was > 100 µM, the TGI [45] was > 100 µM and the TGI [46] was > 100 µM. The TGI [57] was > 100 µM, the TGI [47] was > 100 µM and the TGI [48] was > 100 µM. The TGI [49] was > 100 µM.

With CC(C)c1cc2c(O)c(c1)Cc1cc(C(C)C)cc(c1O)Cc1cc(C(C)C)cc(c1O)Cc1cc(C(C)C)cc(c1O)Cc1cc(C(C)C)cc(c1O)Cc1cc(C(C)C)cc(c1O)C2 the TGI [50] was > 100 µM, the TGI [1] was > 100 µM and the TGI [2] was > 100 µM. The TGI [4] was > 100 µM, the TGI [5] was > 100 µM and the TGI [6] was > 100 µM. For the same compound, the TGI [7] was > 100 µM, the TGI [52] was > 100 µM and the TGI [8] was > 100 µM. For the same compound, the TGI [9] was > 100 µM, the TGI [10] was > 100 µM and the TGI [11] was > 100 µM. For the same compound, the TGI [53] was > 100 µM, the TGI [13] was > 100 µM and the TGI [14] was > 100 µM. For the same compound, the TGI [15] was > 100 µM, the TGI [16] was > 100 µM and the TGI [17] was > 100 µM. The TGI [18] was > 100 µM, the TGI [19] was > 100 µM and the TGI [21] was > 100 µM. For the same compound, the TGI [22] was > 100 µM, the TGI [23] was > 100 µM and the TGI [24] was > 100 µM. The TGI [25] was > 100 µM, the TGI [27] was > 100 µM and the TGI [28] was > 100 µM. The TGI [29] was > 100 µM, the TGI [30] was > 100 µM and the TGI [31] was > 100 µM. For the same compound, the TGI [32] was > 100 µM, the TGI [33] was > 100 µM and the TGI [54] was > 100 µM. For the same compound, the TGI [34] was > 100 µM, the TGI [35] was > 100 µM and the TGI [58] was > 100 µM. For the same compound, the TGI [36] was > 100 µM, the TGI [37] was > 100 µM and the TGI [38] was > 100 µM. For the same compound, the TGI [39] was > 100 µM, the TGI [41] was > 100 µM and the TGI [42] was > 100 µM. The TGI [55] was > 100 µM, the TGI [56] was > 100 µM and the TGI [44] was > 100 µM. The TGI [45] was > 100 µM, the TGI [46] was > 100 µM and the TGI [57] was > 100 µM. For the same compound, the TGI [47] was > 100 µM, the TGI [48] was > 100 µM and the TGI [49] was > 100 µM.
